Test results: paper PMC6968383, “Design, synthesis, in vitro and in vivo evaluation of benzylpiperidine-linked 1,3-dimethylbenzimidazolinones as cholinesterase inhibitors against Alzheimer’s disease” (Journal of Enzyme Inhibition and Medicinal Chemistry, 2019)

Key:
eeAChE = target: T1, eeAChE (Electrophorus electricus, UniProt O42275); assay: Kinetic study of AChE inhibition (Lineweaver–Burk); format: biochemical; settings: Lineweaver–Burk plot, 0, 2, 5, 10, 20 µM
T1 construct: purchased Sigma-Aldrich
Procedure: (§1) In each case, the kinetic type of enzyme inhibition was obtained through the modified Ellman’s method and Lineweaver–Burk secondary plots.
(§2) Figure 2. […] (B) Lineweaver–Burk plot for the inhibition of eqBChE by compound 15j at different concentrations of substrate.
Kinetic studies were performed in the same manner as the determination of ChEs inhibition, while the substrate (ATC/BTC) was used in concentrations of 90, 150, 226, 452, and 904 µM. The concentrations of test compounds were set to 0, 2, 5, 10, and 20 µM for 15b and 0, 0.5, 1, 2, and 5 µM for 15j. The enzymatic reaction was extended to 7 min for eeAChE and eqBuChE before the determination of the absorption. Vmax and Km values of the Michaelis–Menten kinetics were calculated by nonlinear regression from substrate-velocity curves using GraphPad Prism 6.0. Linear regression was used for fitting the Lineweaver–Burk plots.

PC-12 cells = assay: In vitro cell toxicity on PC-12 cell line (MTT); format: cell-based; settings: 10, 20, 30 and 50 µM, 24 h
Source text: We focussed on the cell toxicity of the synthesised compounds. Compounds 15b and 15j were selected as representative compounds for the evaluation of their potential cytotoxic effects.
Figure 4. (A) In vitro cell toxicity of 15b and 15j on PC-12 cell line. (B) In vitro hepatotoxicity of 15b and 15j on HepG2 cell line. Data were expressed as mean ± SD (n = 3).
PC12 cell and HepG2 cell (human hepatocellular liver carcinoma cell line purchased from Institute of Materia of Chinese Academy of Medical Science), were grown in DMEM supplemented with 10% FBS at 37 °C in a humidified atmosphere containing 5% CO2. For the experiments, cells (6 × 10^3 cells/well) were seeded in 96-well plate in complete medium. […]

PC12 cells = assay: Neuroprotection against H2O2-induced cell death in PC12 cells; format: cell-based; settings: PC12 cells pre-treated 24 h, 800 µM H2O2
Procedure: We evaluated the cytoprotective effects of 15b and 15j on H2O2-induced cell damage. Treatment with 800 µM H2O2 for 24 h caused over 55% death rate of PC12 cells compared with the control group (Supplementary Figure S2(A)).
Figure S1. (A) The inhibitory effect of 15b and 15j on i Aβ1-42 self-aggregation. (B) […]
1.3. Neuroprotection assay against H2O2-induced cell death in PC12 cells Cytotoxicity was determined by using 3-(4,5-dimethylthiazol-2-yl)-2,5-diphenyltetrazoliumbromide (MTT) assay. The PC-12 cell line was purchased from Cell Bank of the Chinese Academy of Sciences (Shanghai, China). MTT was purchased from Sigma (M2128, St. Louis, MO). It was dissolved in phosphate buffered saline (PBS) to a stock concentration of 5 mg mL-1 and stored at - 20 °C. PC-12 cells were plated in 96-well plates, raised to a population of 1 × 10^4 cells per well, and incubated overnight. […]
Then the solution was removed and 150.0 μL of DMSO was added into each well to dissolve the MTT formazan crystals. […] The absorbance values (OD value) were read at 570 nm by microplate reader (Thermo, Varioskan Flash 3001, USA). The inhibitory rate for each concentration of the test compound was calculated by the equation as follows: […]
Here, ODtest, ODblank, and ODcontrol stand for the OD value from test compound, background, and DMSO, respectively. The IC50 values were calculated by GraphPad […]

[1] = target: T2, AChE (EC 3.1.1.7) from electric eel (Electrophorus electricus, UniProt O42275); assay: biochemical; format: biochemical
T2 construct: purchased Sigma-Aldrich
Procedure: (§3) The data were expressed as IC50 values (Table 1).
(§4) The inhibitory activities of the target compounds towards AChE (from Electrophorus electricus (electric eeAChE, Sigma-Aldrich) and horse serum BChE (eqBChE, Sigma-Aldrich) or human AChE – huAChE; human BuChE – huBuChE (huAChE, huBuChE, Sigma-Aldrich) were measured by Ellman’s method. In 96-well plates, a mixture of phosphate buffer (0.1 M, pH 8.0, […]), 5,5′-dithiobis-2-nitrobenzoic acid (DTNB, 60 µL), acetylcholinestrase or butyrylcholinesterase (20 µL, 5 IU/mL) and different concentration of the compound solution (30 µL) was pre-incubated for 5 min followed by the addition of the substrate (acetylthiocholine iodide or butyrylthiocholine iodide, 20 µL). […] The measurement of each concentration for each compound was detected in triplicate. GraphPad Prism 6.0 (GraphPad Software, Inc., La Jolla, CA) was used for data processing. The inhibition curve was fitted by plotting percentage enzyme activity (100% for the reference) versus the logarithm of the concentration of tested compound. The half-maximal inhibitory concentration (IC50) values were calculated according to the inhibition curve and the data were shown in the layout of mean ± SEM by GraphPad Prism 6.0.

[2] = target: T3, BChE (EC 3.1.1.8) from horse serum (Equus caballus, UniProt P81908); assay: biochemical; settings: eqBChE; mean ± SEM of triplicate independent experiments; read-out: BChE IC50
T3 construct: horse serum BChE (eqBChE, Sigma-Aldrich); purchased Sigma-Aldrich; host or cells: horse serum
Procedure: as §3, §4

eqBChE = target: T4, eqBChE (Equus caballus, UniProt P81908); assay: Kinetic study of BChE inhibition (Lineweaver–Burk); format: biochemical; settings: Lineweaver–Burk plot, 0, 0.5, 1, 2, 5 µM
T4 construct: horse serum BChE (eqBChE, Sigma-Aldrich); purchased Sigma-Aldrich; host or cells: horse serum
Procedure: as §1, §2
[…]. The enzymatic reaction was extended to 7 min for eeAChE and eqBuChE before the determination of the absorption. Vmax and Km values of the Michaelis–Menten kinetics were calculated by nonlinear regression from substrate-velocity curves using GraphPad Prism 6.0. Linear regression was used for fitting the Lineweaver–Burk plots.

T2 sequence (O42275 24-633): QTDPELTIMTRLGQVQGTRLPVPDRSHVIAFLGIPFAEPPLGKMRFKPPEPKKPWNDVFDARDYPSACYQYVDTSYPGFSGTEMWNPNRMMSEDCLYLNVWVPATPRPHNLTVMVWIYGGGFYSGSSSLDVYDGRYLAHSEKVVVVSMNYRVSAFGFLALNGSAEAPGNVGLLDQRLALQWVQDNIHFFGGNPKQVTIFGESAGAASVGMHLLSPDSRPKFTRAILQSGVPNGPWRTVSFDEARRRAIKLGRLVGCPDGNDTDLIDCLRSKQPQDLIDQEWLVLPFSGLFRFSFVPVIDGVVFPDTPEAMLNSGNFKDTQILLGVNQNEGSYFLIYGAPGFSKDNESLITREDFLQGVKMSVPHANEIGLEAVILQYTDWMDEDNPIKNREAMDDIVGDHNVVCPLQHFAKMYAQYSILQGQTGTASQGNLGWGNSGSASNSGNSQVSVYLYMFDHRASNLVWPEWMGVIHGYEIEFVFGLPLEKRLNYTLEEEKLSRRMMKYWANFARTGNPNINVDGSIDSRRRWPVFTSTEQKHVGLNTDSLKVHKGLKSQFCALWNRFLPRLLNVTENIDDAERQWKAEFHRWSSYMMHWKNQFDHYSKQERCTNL
T3 sequence (P81908 whole entry): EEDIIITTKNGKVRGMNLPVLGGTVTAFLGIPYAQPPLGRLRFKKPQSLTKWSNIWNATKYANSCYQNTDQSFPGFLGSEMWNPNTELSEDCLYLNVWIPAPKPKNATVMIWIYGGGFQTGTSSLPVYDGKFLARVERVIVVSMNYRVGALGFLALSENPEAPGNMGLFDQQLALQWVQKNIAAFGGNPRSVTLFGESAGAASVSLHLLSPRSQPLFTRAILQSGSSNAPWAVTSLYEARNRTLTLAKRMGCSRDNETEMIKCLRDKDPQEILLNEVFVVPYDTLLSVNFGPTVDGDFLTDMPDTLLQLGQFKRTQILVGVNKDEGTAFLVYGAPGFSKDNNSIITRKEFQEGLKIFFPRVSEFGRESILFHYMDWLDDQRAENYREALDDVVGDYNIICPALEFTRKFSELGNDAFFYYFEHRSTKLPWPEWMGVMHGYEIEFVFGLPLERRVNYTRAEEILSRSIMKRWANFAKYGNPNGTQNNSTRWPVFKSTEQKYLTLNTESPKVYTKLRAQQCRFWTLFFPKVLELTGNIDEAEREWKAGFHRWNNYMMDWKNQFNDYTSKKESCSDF
T4 sequence (P81908 whole entry): as above
T1 sequence (O42275 24-633): as the sequence (O42275 24-633) above

## Cc1ccccc1CN1CCC(CNS(=O)(=O)c2ccc3c(c2)n(C)c(=O)n3C)CC1 [Compound 15b, 1,3-dimethyl-N-((1–(2-methylbenzyl)piperidin-4-yl)methyl)-2-oxo-2,3-dihydro-1H-benzo[d]imidazole-5-sulphonamide]
eeAChE
  kinetic type of AChE inhibition: competitive
PC-12 cells
  cytotoxicity to PC-12 cells: no cytotoxicity
PC12 cells
  cytoprotective effect on H2O2-induced cell damage: the mortality rate of PC12 cells caused by H2O2 was reduced

## Cn1c(=O)n(C)c2cc(S(=O)(=O)NCC3CCN(Cc4cccc(Br)c4)CC3)ccc21 [Compound 15j, N-((1–(3-bromobenzyl)piperidin-4-yl)methyl)-1,3-dimethyl-2-oxo-2,3-dihydro-1H-benzo[d]imidazole-5-sulphonamide]
[1]; eeAChE IC50 / eqBChE IC50
  SI (selectivity index = AChE IC50/BChE IC50): 2.44
[1]; eeAChE, mean ± SEM of triplicate independent experiments, read-out: AChE IC50
  IC50: 390 ± 150 nM
[2]
  IC50: 160 ± 40 nM
eqBChE
  kinetic type of BChE inhibition: competitive
PC-12 cells
  cytotoxicity to PC-12 cells: no cytotoxicity
PC12 cells
  cytoprotective effect on H2O2-induced cell damage: the mortality rate of PC12 cells caused by H2O2 was reduced
